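Grown in 96-well plates, cells were treated for 48 hours with each compound at five concentrations. Insufficient inhibition: endpoint recorded as highest concentration tested. At the TGI there is no net growth.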
Key:
Assay in all cases: DTP human tumour cell line panel, 48 h
[1] = system: MALME-3M melanoma
[2] = system: MOLT-4 leukemia
[3] = system: HCC-2998 colon
[4] = system: OVCAR-5 ovarian
[5] = system: UACC-62 melanoma
[6] = system: EKVX NSCLC
[7] = system: A549 NSCLC
[8] = system: SW-620 colon
[9] = system: SK-MEL-28 melanoma
[10] = system: SN12C renal
[11] = system: NCI/ADR-RES ovarian
[12] = system: PC-3 prostate
[13] = system: HCT-116 colon
[14] = system: HT29 colon
[15] = system: SK-MEL-2 melanoma
[16] = system: OVCAR-8 ovarian
[17] = system: M14 melanoma
[18] = system: NCI-H23 lung
[19] = system: SF-539 CNS
[20] = system: SNB-19 CNS
[21] = system: NCI-H226 lung
[22] = system: IGROV1 ovarian
[23] = system: SK-OV-3 ovarian
[24] = system: HOP-92 NSCLC
[25] = system: NCI-H460 lung
[26] = system: HS 578T breast
[27] = system: A498 renal
[28] = system: TK-10 renal
[29] = system: CCRF-CEM leukemia
[30] = system: OVCAR-3 ovarian
[31] = system: SF-268 CNS
[32] = system: MDA-MB-435
[33] = system: SR leukemia
[34] = system: MDA-MB-231 breast
[35] = system: NCI-H522 lung
[36] = system: UACC-257 melanoma
[37] = system: UO-31 renal
[38] = system: HCT-15 colon
[39] = system: CAKI-1 renal
[40] = system: RXF 393 renal
[41] = system: LOX IMVI melanoma
[42] = system: ACHN renal
[43] = system: SK-MEL-5 melanoma
[44] = system: SNB-75 CNS
[45] = system: COLO 205 colon
[46] = system: RPMI-8226 leukemia
[47] = system: SF-295 CNS
[48] = system: KM12 colon
[49] = system: HOP-62 NSCLC
[50] = system: OVCAR-4 ovarian
[51] = system: MDA-N
[52] = system: 786-0 renal
[53] = system: K-562 leukemia
[54] = system: U251 CNS
[55] = system: T-47D breast
[56] = system: MCF7 breast
[57] = system: HL-60(TB) leukemia
[58] = system: DU-145 prostate
[59] = system: BT-549 breast

SMILES: Nc1ncnc2c1ncn2C1OC(CO)C2OC21 (centres undefined)
- TGI [1]: > 10 µM
- TGI [2]: > 100 µM
- TGI [3]: > 100 µM
- TGI [4]: > 100 µM
- TGI [5]: > 100 µM
- TGI [6]: > 100 µM
- TGI [7]: > 100 µM
- TGI [8]: > 100 µM
- TGI [9]: > 100 µM
- TGI [10]: > 100 µM
- TGI [11]: > 10 µM
- TGI [12]: > 100 µM
- TGI [13]: > 100 µM
- TGI [14]: > 100 µM
- TGI [15]: > 100 µM
- TGI [16]: > 100 µM
- TGI [17]: > 10 µM
- TGI [18]: > 100 µM
- TGI [19]: > 100 µM
- TGI [20]: > 100 µM
- TGI [21]: > 100 µM
- TGI [22]: > 100 µM
- TGI [23]: > 100 µM
- TGI [24]: > 100 µM
- TGI [25]: > 10 µM
- TGI [26]: > 100 µM
- TGI [27]: > 100 µM
- TGI [28]: > 100 µM
- TGI [29]: > 100 µM
- TGI [30]: > 10 µM
- TGI [31]: > 100 µM
- TGI [32]: > 10 µM
- TGI [33]: > 100 µM
- TGI [34]: > 100 µM
- TGI [35]: > 100 µM
- TGI [36]: > 100 µM
- TGI [37]: > 100 µM
- TGI [38]: > 10 µM
- TGI [39]: > 100 µM
- TGI [40]: > 100 µM
- TGI [41]: > 100 µM
- TGI [42]: > 100 µM
- TGI [43]: > 100 µM
- TGI [44]: > 100 µM
- TGI [45]: > 100 µM
- TGI [46]: > 100 µM
- TGI [47]: > 100 µM
- TGI [48]: > 100 µM
- TGI [49]: > 100 µM
- TGI [50]: > 100 µM
- TGI [51]: > 10 µM
- TGI [52]: > 10 µM
- TGI [53]: > 100 µM
- TGI [54]: > 100 µM
- TGI [55]: > 100 µM
- TGI [56]: > 100 µM
- TGI [57]: > 100 µM
- TGI [58]: > 100 µM

SMILES: COC(=O)C1(C(=O)OC)N=C(C)OC1c1ccoc1 (centres undefined)
- TGI [2]: > 100 µM
- TGI [3]: > 100 µM
- TGI [4]: > 100 µM
- TGI [5]: > 100 µM
- TGI [6]: > 100 µM
- TGI [7]: > 100 µM
- TGI [8]: > 100 µM
- TGI [9]: > 100 µM
- TGI [10]: > 100 µM
- TGI [11]: > 100 µM
- TGI [12]: > 100 µM
- TGI [13]: > 100 µM
- TGI [15]: > 100 µM
- TGI [16]: > 100 µM
- TGI [17]: > 100 µM
- TGI [18]: > 100 µM
- TGI [20]: > 100 µM
- TGI [21]: > 100 µM
- TGI [23]: > 100 µM
- TGI [24]: > 100 µM
- TGI [25]: > 100 µM
- TGI [27]: > 100 µM
- TGI [28]: > 100 µM
- TGI [29]: > 100 µM
- TGI [30]: > 100 µM
- TGI [32]: > 100 µM
- TGI [33]: > 100 µM
- TGI [36]: > 100 µM
- TGI [37]: > 100 µM
- TGI [38]: > 100 µM
- TGI [39]: > 100 µM
- TGI [40]: > 100 µM
- TGI [41]: > 100 µM
- TGI [42]: > 100 µM
- TGI [43]: > 100 µM
- TGI [44]: > 100 µM
- TGI [45]: > 100 µM
- TGI [46]: > 100 µM
- TGI [47]: > 100 µM
- TGI [48]: > 100 µM
- TGI [59]: > 100 µM
- TGI [49]: > 100 µM
- TGI [50]: > 100 µM
- TGI [51]: > 100 µM
- TGI [52]: > 100 µM
- TGI [53]: > 100 µM
- TGI [54]: > 100 µM
- TGI [55]: > 100 µM
- TGI [56]: > 100 µM
- TGI [57]: > 100 µM
- TGI [58]: > 100 µM

Source: PubChem BioAssay (NCI)
